| melting point [°C] | SMILES |
| --- | --- |
| 110 to 112 | COC(=O)c1ccc(CN(C(C)C)S(=O)(=O)c2ccc(Cl)cc2)cc1 |
| 108 to 110 | CN(Cc1cc2c3c(c1)c(=O)c(C(=O)NCc1ccc(F)cc1)cn3CC(=O)N2C)C[C@@H](O)c1cccnc1 |
| 141 to 143 | Cc1cc(-c2cc(C(F)(F)F)nn2-c2ccc(S(C)(=O)=O)c(F)c2)ccc1-c1cocn1 |
| 219 to 221 | O=C(O)c1ccc(OCC2COC(=O)N2c2ccc(Cl)cc2)cc1 (stereo not given) |
| 143 to 144 | CCCNC(=O)CCCc1ccc2c(c1)c(Cc1ccc(C(=O)O)cc1OC)cn2CCC |
| 148 to 150 | CC(=CCOc1ccc(OC(C)(C)C(=O)O)cc1)c1ccc(-c2ccccc2)cc1 |
| 93 | Cc1ccc(S(=O)(=O)NCCCN(C)S(=O)(=O)c2ccc(C)cc2)cc1 |
| 264 | NS(=O)(=O)c1cccc(-c2cc(-c3nc(-c4ccc(C(F)(F)F)nc4)cc(C(F)F)n3)ccn2)c1 |
| 181 to 182 | Cc1nc2cccc3c(=O)n(CCCCNS(=O)(=O)C(F)(F)F)c(=O)c1n23 |
| 77 to 80 | CCCCCN(CC(=O)OCC)C(=O)C(CCC(=O)O)CS(=O)(=O)c1ccc2ccccc2c1 (stereo not given) |
| 208 to 214 | CCc1nc2c(C(N)=O)cccc2n1-c1ccc(CCNC(=O)NS(=O)(=O)c2ccc(C)cc2)cc1 |
| 114 | CC(C)(N)c1ccc(-c2nc(Nc3ccc(CCN4CCCCC4)cc3)ncc2C#N)cc1 |
| 231 to 232 | COc1nc2c(C)cc(C)cc2c(-c2ccccc2Cl)c1N(C(N)=O)c1ccc(F)cc1F |
| 164 to 165 | CS(=O)(=O)c1ccc(Oc2ccc(C(=O)c3ccccc3)cc2)cc1 |
| 160 to 162 | NC(=O)c1cc(OCCNCC(O)c2ccc(OCc3ccccc3)cc2)ccc1O (stereo not given) |
| 191 to 193 | CCCc1c(OCc2c(C)ccn3c(=O)c(CC(=O)O)cnc23)ccc(C(C)=O)c1O |
| 217 to 219 | COc1ccnc(CCc2nc3cc(-c4ccc(S(=O)(=O)N5CCN(c6ccc(C#N)cc6)CC5)cc4)cnc3[nH]2)c1 |
| 196 | N#Cc1cc(NC(=O)c2ccn(-c3ccc(Cl)cc3)c2)ccc1N1CCN(CCO)CC1 |
| 225 to 226 | N#Cc1ccc(S(=O)(=O)c2ccc(O)cn2)cc1 |
| 130 to 132 | COc1ccc(COc2ccc(Oc3c(C)cc(/C=C/C(=O)N4CCN(Cc5ccc(/C=C/COc6ccc(C)cc6)cc5)CC4)cc3C)nc2)cc1 |
| 236 | CC(C)(C)NS(=O)(=O)c1cnc(-c2cn(-c3cc(C(F)(F)F)cc(-c4ccc(C(F)(F)F)cc4)n3)cn2)s1 |
| > 300 | COC(=O)Nc1nc2cc(C(c3ccc(F)cc3)n3ccnc3C)ccc2[nH]1 (stereo not given) |
| 170 | CCCCc1nc(CCC)nn1Cc1ccc(-c2ccccc2-c2nnn[nH]2)cc1 |
| 237 to 239 | CC(C)C(C(=O)O)N(C)S(=O)(=O)c1ccc(-c2ccc(NC(=O)c3cc4ccccc4o3)cc2)cc1 (stereo not given) |
| 218 to 220 | CCc1cn(C2CC(O)C(CNC(=O)C(C)Sc3ccc(Cl)cc3Cl)O2)c(=O)[nH]c1=O (stereo not given) |
| 178 to 180 | COc1ccccc1COc1ccc(S(=O)(=O)c2ccc(C)nc2Nc2ccc(Cl)cc2C#N)cc1 |
| 243 to 245 | Cc1nc(-n2ccc(C(=O)Nc3ccccc3)cc2=O)sc1C(=O)NCc1ccccc1 |
| 169 to 171 | COc1cc(OCC(=O)O)c(C)cc1SCCc1ccc(-c2ccc(C(F)(F)F)cc2)cc1 |
| 157 to 158 | COc1cc(-c2ccccc2)n(-c2ccc(C)cc2)c1-c1ccccc1 |

The remaining lines, values behind:

| SMILES | melting point [°C] |
| --- | --- |
| CCCS(=O)(=O)c1cc([C@H]2CC[C@H](c3cc(OC)c(OC)c(OC)c3)O2)cc(OC)c1OCc1ccccc1 (relative stereo) | 176 to 177 |
| CC(C)[C@H](NC(=O)OCc1ccccc1)C(=O)N(CC(=O)O)Cc1ccccc1 | 41 to 45 |
| Cn1ccc(OC2c3cc(C#N)ccc3OC(C)(C)C2O)cc1=O (stereo not given) | 202 to 203 |
| CCCCOc1cc(C(=O)O)cc(NC(C)=O)c1C(=O)c1ccccc1 | 177 to 178 |
| Cc1nc2cc(F)ccc2c(=O)o1 | 159 to 160 |
| Cc1n[nH]c2c(O)ncnc12 | 340 |
| Cn1cc(-c2cc(Cl)cc(Cl)c2)c(=O)c(-c2cc(Cl)cc(Cl)c2)c1 | 275 to 278 |
| Nc1cc(/C=C/c2nc3ccccc3s2)ccc1O | 192 to 193 |
| Cc1nn(-c2ccc([N+](=O)[O-])cc2F)c(=O)n1C(F)F | 72 to 77 |
| CCOC(=O)Cc1csc(NC(=O)C(F)(F)F)n1 | 119 to 121 |
| COc1ccc(Cl)cc1C1(F)C(=O)Nc2cc(C(F)(F)F)cc(C(F)(F)F)c21 (stereo not given) | 262 to 264 |
| O=CNc1nc(C(=NOCC(=O)OC(c2ccccc2)c2ccccc2)C(=O)O)cs1 | 143 to 151 |
| O=C(NOCCO)c1ccc(F)c(F)c1Nc1ccc(I)cc1Cl | 173 to 175 |
| N#Cc1ccc(/C=C/C(=O)/C=C/c2ccc(C#N)cc2)cc1 | 137 to 138 |
| C[C@H]1N(S(C)(=O)=O)CO[C@@]1(Cn1cncn1)c1ccc(Cl)cc1Cl (relative stereo) | 167 to 172 |
| CC1NC(=Nc2ccccc2N2CCOCC2)NC1C (stereo not given) | 142 to 143 |
| CCCC1COc2c(Cc3ccc(C(C)C)cc3)c(C)c(NC(=O)CC(C)(C)C)c(C)c21 (stereo not given) | 144 to 145 |
| O=C(O)COc1cc(Cl)c2c(c1)OCC(c1ccccc1)C2=O (stereo not given) | 171 to 173 |
| O=[N+]([O-])c1ccc(Cc2nc(-c3ccncc3)cs2)cc1 | 140 to 142 |
| O=C(O)c1ccc(C2=NOC(c3cc(Cl)cc(Cl)c3)(C(F)(F)F)C2)cc1F (stereo not given) | 172 to 174 |
| CCOc1cc2c(Nc3cc(OC)c(Cl)cc3Cl)c(C#N)cnc2cc1N | 230 to 233 |
| CC(O)c1cnc2c(-c3cc(-c4ccccc4)cs3)cnn2c1O (stereo not given) | 262 to 285 |

| SMILES | melting point [°C] |
| --- | --- |
| O=C1OC(=O)c2nc(C(Cl)(Cl)Cl)ccc21 | 126 to 127 |
| CC(C)c1cccc(CN2C[C@H](CO)OC2=O)c1 | 75 to 77 |
| c1nc2c(cc1NC1=NCCN1)CCCC2 | 201 to 203 |
| COCCOc1cc(N(C)S(=O)(=O)c2cccs2)c2[nH]c(C(=O)O)cc2c1 | 198 to 199 |
| O=C1C=C(C(F)F)C(=O)c2ccccc21 | 74 |
| COCOc1c(-c2ccccc2)sc2ncccc12 | 54 |
| c1ccc(-c2nc3c([nH]2)CCCC3CN2CCN(c3ncccn3)CC2)cc1 (stereo not given) | 200 to 202 |
| COCc1c(-c2nnc(N)o2)ncc2[nH]c3ccc(OCc4ccccc4)cc3c12 | 290 to 293 |
| COc1cc(C(O)c2ccc(C(=O)N(C(C)C)C3CCCCC3)cc2)cc(OC)c1OC (stereo not given) | 158 to 160 |
| O=Cc1cnc2sc3cc(F)ccc3n12 | 182 to 183 |
| O=C(NC1CCCCC1)N(C(=O)c1ccccc1[N+](=O)[O-])C1CCCCC1 | 134 |
| CN1C(=O)CN(NC(=O)CN)C(c2ccccc2)c2cc(Cl)ccc21 (stereo not given) | 173 to 175 |
| CN1C(=O)CCC2(C)c3ccc(NC(=O)c4ccccc4)cc3CCC12 (single isomer, unassigned; (+)) | 220 to 222 |
| CC(C)[C@H](NC(=O)N(C)Cc1ccccn1)C(=O)N[C@@H](Cc1ccccc1)[C@@H](O)C[C@H](Cc1ccccc1)NC(=O)OC(C)(C)C | 84 to 85 |
| Ic1ccc(OC23CC4CC(CC(C4)C2)C3)cc1 | 115 to 118 |
| O=c1nc(NCCCCc2ncccc2Cl)[nH]cc1C(O)c1ccncc1 (stereo not given) | 90 |
| CCCc1c(OCCCBr)ccc(C(C)=O)c1O | 38 to 40 |
| O=Cc1cc(-c2ccc3nnn(Cc4ccc5ncccc5c4)c3n2)cs1 | 195 to 197 |
| CCOC1=C([N+](=O)[O-])CN(C(C)C)C1=O | 47 |
| CC(C)(C)C(=O)Nc1ccncc1 | 137 to 140 |
| NS(=O)(=O)c1cc2c(s1)S(=O)(=O)CC(Br)C2O (stereo not given) | 217 to 219 |
| Cc1cc(C)c2c(c1)C(=O)C1(CCNCC1)CC2 | > 260 |

| SMILES | melting point [°C] |
| --- | --- |
| CN(CCC(Oc1ccc(C(F)(F)F)cc1)c1ccccc1)Cc1ccccc1 (stereo not given) | 42 to 44 |
| CC(C)(C)OC(=O)NCCOc1ccccc1OCCBr | 74 to 75 |
| COC(=O)c1[nH]c2c(C)ccc(C)c2c1C(=O)OC | 143 to 144 |
| CCOC(=O)c1[nH]c2ccc(F)cc2c1N | 77 to 78 |
| CON=C(C(=O)OC)c1ccccc1COc1ccc2c(c1)OCC2=NOC | 108 to 110 |
| Cc1cc(C)c2ncc(N)c(-c3ccccc3Cl)c2c1 | 152 to 154 |
| CC(C)COC(=O)CC1CC(c2ccc(C#N)cc2)=NO1 (single isomer, unassigned; (-)) | 98 to 100 |
| CC(=O)Oc1ccc(C(CC(=O)O)CC(=O)OCC(=O)C2CCC3C4CCC5=CC(=O)CCC5(C)C4C4CC23C(O)O4)cc1 (stereo not given) | 145 to 160 |
| CCNC(=S)Nc1cc(F)ccc1C | 93 to 95 |
| CN1C(=O)CN=C(c2ccccc2)c2c1cc(Cl)c(N)c2Cl | 228 |
| O=C1CC(c2ccc(Cl)c(Cl)c2)Cc2[nH]c3ccc(Cl)cc3c(=O)c21 (stereo not given) | > 325 |
| CCCCCS(=O)(=O)NC(=O)/C=C/c1ccc(OCC2CCCO2)cc1Oc1ncc(C(F)(F)F)cc1Cl (stereo not given) | 126 to 128 |
| CCOC(=O)/C=C(\c1cccc(C(F)(F)F)c1)c1ccc(OC)c(OC)c1 | 72 to 74 |
| CCN=C(c1ccc(OC)c(OC)c1)N1CCCc2cc(C3=NNC(=O)SC3C)ccc21 (stereo not given) | 208 |
| O=C1NCCN1CCN1CC=C(c2cn(-c3ccc(F)cc3)c3ccc(C(F)(F)F)cc23)CC1 | 200 |
| CCOP(=O)(OCC)C(CC(NC(=O)OC(C)(C)C)C(=O)c1ccccc1)P(=O)(OCC)OCC (stereo not given) | 56 to 57 |
| COc1ccnc(CSc2nc3c(OC(F)F)c(OC)c(OC)cc3[nH]2)c1C | 177 to 179 |
| NNc1cc(Nc2ccc(F)c(C(F)(F)F)c2)nc(Cl)n1 | 102 to 103 |
| CN(C)/C(=C1/Sc2ccccc2C1=O)c1ccccc1 | 179 to 180 |
| CCOc1noc2c1C(=O)CCC2 | 98 to 99 |
| CC1CCc2c(N3CCCC3)c(F)cc3c(=O)c(C(=O)O)cn1c23 (stereo not given) | 243 to 245 |
| NS(=O)(=O)c1cc2c(s1)S(=O)(=O)N(CCN1CCOCC1)N=C2 | 164 to 166 |

From a melting point compilation (Tetko et al.; mined from patent text by program, amines drawn as free bases though some values may be those of a salt)
